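Growth conditions: 96-well plates. Treatment: test compound, 48 hours, 5 concentrations. Analysis: linear interpolation between bracketing concentrations; unreached endpoints set to highest concentration. GI50: concentration for 50% inhibition of growth. TGI: concentration producing complete growth inhibition.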
Key:
Experiment in all cases: DTP human tumour cell line panel, 48 h
[1] = tested on: NCI-H226 lung
[2] = tested on: NCI-H23 lung
[3] = tested on: ACHN renal
[4] = tested on: M14 melanoma
[5] = tested on: UO-31 renal
[6] = tested on: SK-OV-3 ovarian
[7] = tested on: UACC-62 melanoma
[8] = tested on: BT-549 breast
[9] = tested on: CCRF-CEM leukemia
[10] = tested on: NCI-H460 lung
[11] = tested on: DU-145 prostate
[12] = tested on: CAKI-1 renal
[13] = tested on: T-47D breast
[14] = tested on: SF-268 CNS
[15] = tested on: UACC-257 melanoma
[16] = tested on: U251 CNS
[17] = tested on: HCT-15 colon
[18] = tested on: MALME-3M melanoma
[19] = tested on: SNB-19 CNS
[20] = tested on: SF-295 CNS
[21] = tested on: HOP-62 NSCLC
[22] = tested on: MCF7 breast
[23] = tested on: KM12 colon
[24] = tested on: NCI/ADR-RES ovarian
[25] = tested on: IGROV1 ovarian
[26] = tested on: SF-539 CNS
[27] = tested on: OVCAR-5 ovarian
[28] = tested on: SK-MEL-2 melanoma
[29] = tested on: LOX IMVI melanoma
[30] = tested on: SK-MEL-28 melanoma
[31] = tested on: RPMI-8226 leukemia
[32] = tested on: HS 578T breast
[33] = tested on: NCI-H522 lung
[34] = tested on: SNB-75 CNS
[35] = tested on: SK-MEL-5 melanoma
[36] = tested on: SN12C renal
[37] = tested on: MDA-MB-231 breast
[38] = tested on: EKVX NSCLC
[39] = tested on: OVCAR-8 ovarian
[40] = tested on: A498 renal
[41] = tested on: HOP-92 NSCLC
[42] = tested on: HT29 colon
[43] = tested on: SR leukemia
[44] = tested on: RXF 393 renal
[45] = tested on: HCT-116 colon
[46] = tested on: HCC-2998 colon
[47] = tested on: A549 NSCLC
[48] = tested on: COLO 205 colon
[49] = tested on: HL-60(TB) leukemia
[50] = tested on: 786-0 renal
[51] = tested on: OVCAR-3 ovarian
[52] = tested on: PC-3 prostate
[53] = tested on: MOLT-4 leukemia
[54] = tested on: K-562 leukemia
[55] = tested on: TK-10 renal
[56] = tested on: OVCAR-4 ovarian
[57] = tested on: SW-620 colon
[58] = tested on: MDA-MB-435
[59] = tested on: MDA-N

## COc1cc(CNc2oc(-c3ccccc3)c(-c3ccccc3)c2C#N)cc(CN2CCN(C)CC2)c1O
[1]
  GI50: 2.48 µM
  TGI: 6.75 µM
[2]
  GI50: 1.86 µM
  TGI: 3.79 µM
[3]
  GI50: 1.8 µM
  TGI: 3.19 µM
[4]
  GI50: 1.78 µM
  TGI: 3.65 µM
[5]
  GI50: 1.23 µM
  TGI: 2.62 µM
[6]
  GI50: 2.22 µM
  TGI: 4.06 µM
[7]
  GI50: 1.77 µM
  TGI: 3.47 µM
[8]
  GI50: 1.71 µM
  TGI: 3.42 µM
[9]
  GI50: 2.85 µM
  TGI: 10 µM
[10]
  GI50: 1.89 µM
  TGI: 3.55 µM
[11]
  GI50: 1.99 µM
  TGI: 4.03 µM
[12]
  GI50: 1.68 µM
  TGI: 3.17 µM
[13]
  GI50: 1.91 µM
  TGI: 4.17 µM
[14]
  GI50: 1.79 µM
  TGI: 3.7 µM
[15]
  GI50: 1.84 µM
  TGI: 3.71 µM
[16]
  GI50: 1.76 µM
  TGI: 3.58 µM
[17]
  GI50: 1.32 µM
  TGI: 2.77 µM
[18]
  GI50: 1.85 µM
  TGI: 3.41 µM
[19]
  GI50: 1.81 µM
  TGI: 3.33 µM
[20]
  GI50: 1.87 µM
  TGI: 3.49 µM
[21]
  GI50: 1.92 µM
  TGI: 4.21 µM
[22]
  GI50: 1.46 µM
  TGI: 3.07 µM
[23]
  GI50: 1.9 µM
  TGI: 3.55 µM
[24]
  GI50: 2.1 µM
  TGI: 4.75 µM
[25]
  GI50: 1.58 µM
  TGI: 3.25 µM
[26]
  GI50: 1.72 µM
  TGI: 3.16 µM
[27]
  GI50: 1.73 µM
  TGI: 3.55 µM
[28]
  GI50: 2.17 µM
  TGI: 4.56 µM
[29]
  GI50: 1.67 µM
  TGI: 3.18 µM
[30]
  GI50: 1.78 µM
  TGI: 3.24 µM
[31]
  GI50: 2.23 µM
  TGI: 6.33 µM
[32]
  GI50: 2.26 µM
  TGI: 6.61 µM
[33]
  GI50: 1.87 µM
  TGI: 3.95 µM
[34]
  GI50: 1.33 µM
  TGI: 2.94 µM
[35]
  GI50: 1.62 µM
  TGI: 3.05 µM
[36]
  GI50: 3.95 µM
  TGI: 15.3 µM
[37]
  GI50: 2.01 µM
  TGI: 3.93 µM
[38]
  GI50: 1.81 µM
  TGI: 3.59 µM
[39]
  GI50: 2.56 µM
  TGI: 10.1 µM
[40]
  GI50: 1.55 µM
  TGI: 3.48 µM
[41]
  GI50: 2.34 µM
  TGI: 10.2 µM
[42]
  GI50: 1.92 µM
  TGI: 3.99 µM
[43]
  GI50: 1.6 µM
  TGI: 4.46 µM
[44]
  GI50: 1.41 µM
  TGI: 2.95 µM
[45]
  GI50: 1.55 µM
  TGI: 4.17 µM
[46]
  GI50: 1.79 µM
  TGI: 3.36 µM
[47]
  GI50: 1.97 µM
  TGI: 4.16 µM
[48]
  GI50: 1.98 µM
  TGI: 4.05 µM
[49]
  GI50: 1.79 µM
  TGI: 4.19 µM
[50]
  GI50: 1.68 µM
  TGI: 3.21 µM
[51]
  GI50: 1.76 µM
  TGI: 3.21 µM
[52]
  GI50: 1.87 µM
  TGI: 4.09 µM
[53]
  GI50: 1.96 µM
  TGI: 4.24 µM
[54]
  GI50: 1.51 µM
  TGI: 4.16 µM
[55]
  GI50: 1.62 µM
  TGI: 3.34 µM
[56]
  GI50: 1.86 µM
  TGI: 3.99 µM
[57]
  GI50: 1.72 µM
  TGI: 3.33 µM
[58]
  GI50: 1.77 µM
  TGI: 3.26 µM

## CC(=O)/C(=N\Nc1ccc(Cl)cc1)C(C)=Nc1ccc(C)cc1
[1]
  TGI: 83.7 µM
[2]
  TGI: > 100 µM
[3]
  TGI: 61.3 µM
[4]
  TGI: 58 µM
[5]
  TGI: > 100 µM
[6]
  TGI: > 100 µM
[7]
  TGI: > 100 µM
[8]
  TGI: > 100 µM
[9]
  TGI: 37.7 µM
[11]
  TGI: > 100 µM
[12]
  TGI: > 100 µM
[13]
  TGI: > 100 µM
[14]
  TGI: > 100 µM
[15]
  TGI: > 100 µM
[16]
  TGI: > 100 µM
[17]
  TGI: > 100 µM
[18]
  TGI: 59.2 µM
[19]
  TGI: > 100 µM
[59]
  TGI: > 100 µM
[20]
  TGI: > 100 µM
[23]
  TGI: > 100 µM
[24]
  TGI: > 100 µM
[25]
  TGI: > 100 µM
[27]
  TGI: > 100 µM
[28]
  TGI: 40 µM
[29]
  TGI: > 100 µM
[30]
  TGI: > 100 µM
[31]
  TGI: > 100 µM
[32]
  TGI: > 100 µM
[33]
  TGI: 66.7 µM
[34]
  TGI: > 100 µM
[35]
  TGI: 38.8 µM
[36]
  TGI: > 100 µM
[37]
  TGI: > 100 µM
[38]
  TGI: > 100 µM
[39]
  TGI: > 100 µM
[40]
  TGI: 85.2 µM
[41]
  TGI: 37.4 µM
[42]
  TGI: 61.3 µM
[43]
  TGI: > 100 µM
[44]
  TGI: 95.8 µM
[45]
  TGI: > 100 µM
[47]
  TGI: > 100 µM
[48]
  TGI: 43.1 µM
[50]
  TGI: > 100 µM
[51]
  TGI: 84.5 µM
[52]
  TGI: > 100 µM
[53]
  TGI: > 100 µM
[54]
  TGI: > 100 µM
[55]
  TGI: > 100 µM
[56]
  TGI: > 100 µM
[57]
  TGI: > 100 µM
[58]
  TGI: > 100 µM

## c1ccc2c(c1)cc1ccc3cccc4ccc2c1c34
[1]
  TGI: > 100 µM
[2]
  TGI: > 100 µM
[3]
  TGI: > 100 µM
[4]
  TGI: > 100 µM
[5]
  TGI: > 100 µM
[6]
  TGI: > 100 µM
[7]
  TGI: > 100 µM
[8]
  TGI: > 100 µM
[9]
  TGI: > 100 µM
[10]
  TGI: > 100 µM
[11]
  TGI: > 100 µM
[12]
  TGI: > 100 µM
[13]
  TGI: > 100 µM
[14]
  TGI: > 100 µM
[15]
  TGI: > 100 µM
[16]
  TGI: > 100 µM
[17]
  TGI: > 100 µM
[18]
  GI50: > 100 µM
  TGI: > 100 µM
[19]
  TGI: > 100 µM
[59]
  TGI: > 100 µM
[20]
  TGI: > 100 µM
[21]
  TGI: > 100 µM
[23]
  TGI: > 100 µM
[24]
  TGI: > 100 µM
[25]
  TGI: > 100 µM
[26]
  TGI: > 100 µM
[27]
  GI50: > 100 µM
  TGI: > 100 µM
[28]
  TGI: > 100 µM
[29]
  TGI: > 100 µM
[30]
  TGI: > 100 µM
[31]
  TGI: > 100 µM
[32]
  TGI: > 100 µM
[33]
  TGI: > 100 µM
[34]
  TGI: > 100 µM
[35]
  TGI: > 100 µM
[36]
  TGI: > 100 µM
[37]
  TGI: > 100 µM
[38]
  TGI: > 100 µM
[39]
  TGI: > 100 µM
[40]
  GI50: > 100 µM
  TGI: > 100 µM
[41]
  TGI: > 100 µM
[42]
  TGI: > 100 µM
[43]
  TGI: > 100 µM
[44]
  TGI: > 100 µM
[45]
  TGI: > 100 µM
[46]
  TGI: > 100 µM
[47]
  TGI: > 100 µM
[48]
  TGI: > 100 µM
[49]
  TGI: > 100 µM
[50]
  TGI: > 100 µM
[51]
  TGI: > 100 µM
[52]
  TGI: > 100 µM
[53]
  TGI: > 100 µM
[54]
  TGI: > 100 µM
[55]
  TGI: > 100 µM
[56]
  GI50: > 100 µM
  TGI: > 100 µM
[57]
  TGI: > 100 µM
[58]
  TGI: > 100 µM
